The values that follow come from patent US11963527B2, “Compounds, compositions, and methods for altering insect and organism behavior” (BASF Corporation, priority 2013, dated 2024).

Series [1] can be described thus: Stability test of Poncho 600 with Eugenol, clothianidin content by HPLC. Conditions: combined with Eugenol; up to 54° C. for seven days. The format is physicochemical. As to the method: Table 6 describes a stability test with a combination of Eugenol and Poncho evaluated at room temperature, 40° C., and 54° C. at zero time, 3 days, and 7 days as confirmed by high performance liquid chromatography (HPLC).

Series [2] in a line: Stability test of Poncho 600 with α-terpineol, clothianidin content by HPLC. The format is physicochemical. The conditions noted are these: combined with alpha-terpineol; up to 54° C. for eight days. As to the method:
Table 7 describes a stability test with a combination of α-terpineol and Poncho 600 evaluated at room temperature, 40° C., and 54° C. at zero time, 2 days, and 8 days as confirmed by HPLC.

Another series has as its system honeybees. Nature of the series: Honeybee repulsion feeding station experiment, repellent in 50% sucrose solution. The format is in vivo. Conditions: 2% by weight with 50% sucrose. As to the method:
FIG. 1 describes the feeding station arrangement (A and B) for the honeybee repulsion experiments described herein. As set forth in FIG. 1, panel (A) sets forth the bee cage positions on the left portion of panel (A) with the randomized feeding station positions on the right portion of panel (A). Panel (B) sets forth an alignment of the randomized feeding station positions with a distance of two meters between feeding stations. A total of eight feeding stations were evaluated at a ten meter distance in front of the respective bee hives. The feeding stations were placed two meters apart from one another.
Honeybees were trained to deep feeders (eight positions), each containing a 50% sucrose solution for one day. After the honeybees were trained to each feeder, the 50% sucrose feeder at randomized positions 1-8 was replaced with a shallow feeder containing a combination of repelling compounds and a 50% sucrose solution according to Table 5. In accordance with FIGS. 5 and 6, 2% by weight of Camphor oil (T4), Ajowan oil (T5), Camphor powder (T6), Rosemary oil (T7), and 2-Decanone (T8) in combination with a 50% sucrose treatment were added to feeders on day two.
Table 5 describes active agents evaluated for bee repulsion and their randomized feeding station positions. As described in Table 5, T1 (control), T2 (control), T3 (control), T4 (Camphor oil), T5 (Ajowan oil), T6 (Camphor powder), T7 (Rosemary oil), and T8 (2-Decanone).
FIG. 5 evaluates the number of bees visiting a respective feed station over a time interval. FIG. 6 sets forth the mean number of honeybees visiting feeding station over a period of four hours.

Molecules are shown by their SMILES.

Consider `CN/C(=N\[N+](=O)[O-])NCc1cnc(Cl)s1` [clothianidin], for which the “chemical stability of clothianidin content” value in series [1] and in series [2] was “exhibited chemical stability” in each case.
For the compound `CCCCCCCCC(C)=O` [Compound 2-decanone, 2-decanone], in the series with honeybees (4 hours), the “repellency to honeybees over the full 4 hour assessment period” value is “highly repellent”. Besides, the “repellency to honeybees at 24 hours” value in the series on honeybees is on record as “still repellent”; in the series with honeybees (listed as 2-Decanone) it was “exhibited repellency”.
